Literature values in patent US7666823B2, “Lens care solutions” (Novartis AG, priority 2005, dated 2010).

Conditions: dissociation constant of the dibasic compound, aqueous

pKa1: 6.8
pKa2: 9.5
Structure (SMILES): OCC(CO)(CO)NCCCNC(CO)(CO)CO [bis-TRIS-propane, 1,3-bis(tris[hydroxymethyl]methylamino)propane]
